Source: PubChem BioAssay (NCI)
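Results reflect a 48-hour exposure of cells in 96-well plates to compound at five concentrations. The concentration for 50% growth inhibition is given as GI50. TGI marks complete inhibition of growth.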

Assays:
Test in all cases: inhibition of tumour cell growth, NCI panel, 48 h
HT29 colon = tested on: HT29 colon
UACC-62 melanoma = tested on: UACC-62 melanoma
MALME-3M melanoma = tested on: MALME-3M melanoma
RPMI-8226 leukemia = tested on: RPMI-8226 leukemia
NCI-H522 lung = tested on: NCI-H522 lung
SK-OV-3 ovarian = tested on: SK-OV-3 ovarian
SW-620 colon = tested on: SW-620 colon
SK-MEL-5 melanoma = tested on: SK-MEL-5 melanoma
PC-3 prostate = tested on: PC-3 prostate
HCT-15 colon = tested on: HCT-15 colon

| Compound | TGI (HT29 colon) [µM] | TGI (UACC-62 melanoma) [µM] | TGI (MALME-3M melanoma) [µM] | TGI (RPMI-8226 leukemia) [µM] | TGI (NCI-H522 lung) [µM] | TGI (SK-OV-3 ovarian) [µM] | TGI (SW-620 colon) [µM] | TGI (SK-MEL-5 melanoma) [µM] | TGI (PC-3 prostate) [µM] | TGI (HCT-15 colon) [µM] | GI50 (HT29 colon) [µM] | GI50 (UACC-62 melanoma) [µM] | GI50 (MALME-3M melanoma) [µM] | GI50 (RPMI-8226 leukemia) [µM] | GI50 (NCI-H522 lung) [µM] | GI50 (SK-OV-3 ovarian) [µM] | GI50 (SW-620 colon) [µM] | GI50 (SK-MEL-5 melanoma) [µM] | GI50 (PC-3 prostate) [µM] | GI50 (HCT-15 colon) [µM] |
| --- | --- | --- | --- | --- | --- | --- | --- | --- | --- | --- | --- | --- | --- | --- | --- | --- | --- | --- | --- | --- |
| Oc1c([Si](c2ccccc2)(c2ccccc2)c2ccccc2)cc2ccccc2c1-c1c(O)c([Si](c2ccccc2)(c2ccccc2)c2ccccc2)cc2ccccc12 | > 100 | > 100 | > 100 | > 100 | > 100 | > 100 | > 100 | > 100 | > 100 | > 100 | – | – | – | – | – | – | – | – | – | – |
| CSc1n[nH]c(N)c1C(=O)Nc1ccc(C)cc1 | > 100 | > 100 | > 100 | > 100 | > 100 | > 100 | > 100 | > 100 | > 100 | > 100 | – | – | – | – | – | – | – | – | – | – |
| C[C@@H]1CC[C@H]2C(C(O)CCCCC(O)C3=C(C(F)(F)F)O[C@@H]4O[C@@]5(C)CC[C@H]6[C@H](C)CC[C@@H]3[C@@]46OO5)=C(C(F)(F)F)O[C@@H]3O[C@@]4(C)CC[C@@H]1[C@]32OO4 (stereo not given in full) | > 100 | > 100 | > 100 | > 100 | > 100 | > 100 | > 100 | > 100 | > 100 | > 100 | 13.6 | 8.13 | 44.7 | 5.06 | 26.6 | > 100 | 5.64 | 24.7 | 3.96 | 9.79 |
| CCCC(=O)NC(Nc1ccc(S(=O)(=O)Nc2nc(C)cc(C)n2)cc1)(C(F)(F)F)C(F)(F)F | > 100 | > 100 | > 100 | > 100 | > 100 | > 100 | > 100 | > 100 | > 100 | > 100 | – | – | – | – | – | – | – | – | – | – |
